#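 48-hour exposure; five concentrations; linearly interpolated endpoints. GI50: concentration for 50% inhibition of growth. Definition used: TGI = concentration required for complete inhibition of growth.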
# Experiments:
# Test in all cases: NCI tumour cell line growth inhibition, 48 h
# [1] = tested on: HCT-15 colon
# [2] = tested on: TK-10 renal
# [3] = tested on: MDA-MB-231 breast
# [4] = tested on: K-562 leukemia
# [5] = tested on: COLO 205 colon
# [6] = tested on: SNB-19 CNS
# [7] = tested on: HL-60(TB) leukemia
# [8] = tested on: RPMI-8226 leukemia
# [9] = tested on: IGROV1 ovarian
# [10] = tested on: T-47D breast
# [11] = tested on: CCRF-CEM leukemia
# [12] = tested on: OVCAR-5 ovarian
# [13] = tested on: BT-549 breast
# [14] = tested on: SF-268 CNS
# [15] = tested on: HT29 colon
# [16] = tested on: SK-OV-3 ovarian
# [17] = tested on: SF-539 CNS
# [18] = tested on: UACC-257 melanoma
# [19] = tested on: HCC-2998 colon
# [20] = tested on: MOLT-4 leukemia
# [21] = tested on: DU-145 prostate
# [22] = tested on: NCI/ADR-RES ovarian
# [23] = tested on: OVCAR-4 ovarian
# [24] = tested on: SN12C renal
# [25] = tested on: SR leukemia
# [26] = tested on: SW-620 colon
# [27] = tested on: SF-295 CNS
# [28] = tested on: RXF 393 renal
# [29] = tested on: OVCAR-8 ovarian
smiles,measurement,setting,value
O=C(NNc1nc2cc(F)c(F)cc2n2c(CN3CC4CNCC4C3)ccc12)c1ncccn1 (configuration not stated),TGI,[1],25.1 µM
same,GI50,[2],7.89 µM
same,TGI,[2],29.7 µM
same,GI50,[3],3.64 µM
same,TGI,[3],21 µM
same,GI50,[4],2.4 µM
same,TGI,[4],74.5 µM
same,GI50,[5],2.81 µM
same,TGI,[5],11.8 µM
same,GI50,[6],3.53 µM
same,TGI,[6],29.1 µM
same,GI50,[7],2.62 µM
same,TGI,[7],10.7 µM
same,GI50,[8],3.69 µM
same,TGI,[8],55.7 µM
same,GI50,[9],1.85 µM
same,TGI,[9],12.3 µM
same,GI50,[10],3.08 µM
same,TGI,[10],14.2 µM
same,GI50,[11],1.86 µM
same,TGI,[11],> 100 µM
same,GI50,[12],5.08 µM
same,TGI,[12],25.4 µM
same,GI50,[13],4.47 µM
same,TGI,[13],18.7 µM
same,GI50,[14],1.87 µM
same,TGI,[14],14.8 µM
same,GI50,[15],3.76 µM
same,TGI,[15],32.2 µM
same,GI50,[16],1.96 µM
same,TGI,[16],14.8 µM
same,GI50,[17],2.76 µM
same,TGI,[17],9.5 µM
same,GI50,[18],2.8 µM
same,TGI,[18],9.36 µM
same,GI50,[19],4.14 µM
same,TGI,[19],19.3 µM
same,GI50,[20],3.14 µM
same,TGI,[20],> 100 µM
same,GI50,[21],2.31 µM
same,TGI,[21],16.1 µM
same,GI50,[22],5.29 µM
same,TGI,[22],22.7 µM
same,GI50,[23],2.8 µM
same,TGI,[23],17.9 µM
same,GI50,[24],3.06 µM
same,TGI,[24],13.8 µM
same,GI50,[25],1.53 µM
same,TGI,[25],> 100 µM
same,GI50,[26],2.48 µM
same,TGI,[26],16.1 µM
same,GI50,[27],0.847 µM
same,TGI,[27],12.5 µM
same,GI50,[28],2 µM
same,TGI,[28],9.33 µM
same,GI50,[29],2.18 µM
same,TGI,[29],12.8 µM

# Source: PubChem BioAssay (NCI)
